Data published in ChEMBL document CHEMBL4196039, “Pan-NS3 protease inhibitors of hepatitis C virus based on an R3-elongated pyrazinone scaffold” (Eur J Med Chem, 2018).
pEC50, pKi: −log10 of the molar value. Non-standard residues stand in square brackets, D forms with d. Residues, ends and D or L forms follow the SMILES beside them. dGla = N[C@H](CC(C(=O)O)C(=O)O)C(=O)O; Cha = N[C@@H](CC1CCCCC1)C(=O)O

Key:
NS3 [1] = target: T1, NS3 (Hepatitis C virus, UniProt A3EZJ3); test: Inhibition of HCV genotype-3a full length NS3 protease preincubated for 10 mins followed by Ac-DED(Edans)EEAbuj-[COO]ASK(Dabcyl)-NH2 addition in presence of co-factor 2K-NS4A by fluorescence assay; parameters: species or system Hepatitis C virus subtype 3a
T1 sequence (A3EZJ3 whole entry): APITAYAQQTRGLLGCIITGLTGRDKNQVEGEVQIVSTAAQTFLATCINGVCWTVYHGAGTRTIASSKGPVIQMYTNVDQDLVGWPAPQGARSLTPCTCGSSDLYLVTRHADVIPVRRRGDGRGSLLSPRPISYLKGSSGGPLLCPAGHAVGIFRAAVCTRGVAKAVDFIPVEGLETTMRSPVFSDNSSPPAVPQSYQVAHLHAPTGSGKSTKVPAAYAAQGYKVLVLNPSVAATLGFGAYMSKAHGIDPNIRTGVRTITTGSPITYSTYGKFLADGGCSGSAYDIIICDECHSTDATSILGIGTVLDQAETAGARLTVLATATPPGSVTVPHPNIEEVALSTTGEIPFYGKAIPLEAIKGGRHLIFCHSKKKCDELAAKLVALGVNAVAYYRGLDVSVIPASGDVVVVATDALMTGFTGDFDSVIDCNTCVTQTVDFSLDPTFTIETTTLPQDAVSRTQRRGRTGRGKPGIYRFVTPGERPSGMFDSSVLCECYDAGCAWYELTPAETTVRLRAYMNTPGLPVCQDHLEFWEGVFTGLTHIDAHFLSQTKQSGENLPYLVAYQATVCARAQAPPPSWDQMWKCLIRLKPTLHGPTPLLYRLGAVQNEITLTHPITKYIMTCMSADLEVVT

NS3 [2] = target: T1, NS3; test: Inhibition of HCV genotype-1a full length NS3 protease preincubated for 10 mins followed by Ac-DED(Edans)EEAbuj-[COO]ASK(Dabcyl)-NH2 addition in presence of co-factor 2K-NS4A by fluorescence assay; parameters: species or system Hepatitis C virus subtype 1a
NS3 [3] = target: NS3 (Hepatitis C virus, UniProt A3EZJ3, R155K); test: Inhibition of HCV genotype-1a full length NS3 protease R155K mutant preincubated for 10 mins followed by Ac-DED(Edans)EEAbuj-[COO]ASK(Dabcyl)-NH2 addition in presence of co-factor 2K-NS4A by fluorescence assay; parameters: species or system Hepatitis C virus subtype 1a
Chain of NS3 (Hepatitis C virus, UniProt A3EZJ3, R155K) (A3EZJ3 entry or part of it R155K): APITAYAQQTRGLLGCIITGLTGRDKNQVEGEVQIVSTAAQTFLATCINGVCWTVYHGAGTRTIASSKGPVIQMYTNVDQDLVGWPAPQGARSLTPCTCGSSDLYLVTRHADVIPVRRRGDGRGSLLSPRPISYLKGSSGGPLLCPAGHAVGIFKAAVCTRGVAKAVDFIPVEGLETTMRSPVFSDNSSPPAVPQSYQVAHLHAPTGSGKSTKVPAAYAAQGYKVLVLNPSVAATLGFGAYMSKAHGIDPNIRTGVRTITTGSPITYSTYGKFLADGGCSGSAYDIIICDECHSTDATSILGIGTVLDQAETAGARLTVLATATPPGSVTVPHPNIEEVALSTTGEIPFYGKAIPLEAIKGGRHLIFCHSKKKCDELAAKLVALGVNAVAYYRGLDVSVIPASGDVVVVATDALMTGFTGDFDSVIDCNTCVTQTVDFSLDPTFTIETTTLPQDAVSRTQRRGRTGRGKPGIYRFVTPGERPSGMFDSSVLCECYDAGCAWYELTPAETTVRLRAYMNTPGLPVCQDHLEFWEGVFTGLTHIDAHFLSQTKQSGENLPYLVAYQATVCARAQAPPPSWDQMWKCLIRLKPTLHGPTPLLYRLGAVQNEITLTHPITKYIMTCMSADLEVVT

Hepatitis C virus = test: Antiviral activity against HCV genotype 1b infected in human HuH7 cells; format: functional, organism-based, Hepacivirus hominis; settings: Huh-7
[4] = Cytotoxicity against human HuH7 cell; format: cell-based, Huh-7; settings: HuH7 cells
NS3 [5] = target: T1, NS3; test: Inhibition of HCV genotype-1a NS3 protease; parameters: species or system Hepatitis C virus subtype 1a

Structure (SMILES) | pKi (NS3 [1]) | pKi (NS3 [2]) | further results
CC(C)(C)NC(=O)Nc1nc(Cl)c(CCC2CCCCC2)n(CC(=O)NC2(C(=O)NS(=O)(=O)c3ccc(C(F)(F)F)cc3)CC(OCc3ccccc3)C2)c1=O (stereo not given) | 7.17 |  | 
CC(C)(C)NC(=O)Nc1nc(Cl)c(CCC2CCCCC2)n(CC(=O)Nc2ccccc2C(=O)O)c1=O | 7.15 |  | 
CC(C)(C)NC(=O)Nc1nc(Cl)c(Cc2cccc3ccccc23)n(CC(=O)Nc2ccccc2S(=O)(=O)NC(=O)c2ccc(C(F)(F)F)cc2)c1=O | 6.77 |  | 
CC(C)(C)NC(=O)Nc1nc(Cl)c(CCC2CCCCC2)n(CC(=O)Nc2cc(-c3cncnc3)ccc2C(=O)NS(=O)(=O)c2ccc(C(F)(F)F)cc2)c1=O | 7.06 |  | 
O=C(Cn1c(Cc2ccccc2)c(Cl)nc(NNC(=O)c2ccccc2)c1=O)Nc1ccccc1C(=O)NS(=O)(=O)c1ccc(C(F)(F)F)cc1 |  | 5.78 | 
CC(C)(C)[C@@H](CNS(=O)(=O)c1cccnc1)NC(=O)Nc1nc(Cl)c(Cc2ccccc2)n(CC(=O)Nc2cc(F)ccc2C(=O)NS(=O)(=O)c2ccc(C(F)(F)F)cc2)c1=O |  | 6.72 | pKi (NS3 [3]): 7.40
CC1(C)CC(=O)N(C[C@@H](NC(=O)Nc2nc(Cl)c(CCC3CCCCC3)n(CC(=O)Nc3cc(F)ccc3C(=O)NS(=O)(=O)c3ccc(C(F)(F)F)cc3)c2=O)C(C)(C)C)C(=O)C1 | 8.27 | 7.52 | pKi (NS3 [3]): 8.70; pEC50 (Hepatitis C virus): 5.15; CC50 [4]: 26000 nM
CC(C)(C)N1CCN(c2nc(Cl)c(Cc3ccccc3)n(CC(=O)Nc3ccccc3C(=O)NS(=O)(=O)c3ccc(C(F)(F)F)cc3)c2=O)C1=O |  | 6.42 | 
CC1(C)CC(=O)N(C[C@@H](NC(=O)Nc2nc(Cl)c(Cc3ccccc3)n(CC(=O)Nc3cc(F)ccc3C(=O)NS(=O)(=O)c3ccc(C(F)(F)F)cc3)c2=O)C(C)(C)C)C(=O)C1 | 6.87 | 6.80 | pKi (NS3 [3]): 7.52
CC[C@H](C)[C@H](NC(=O)[C@H](CC(C)C)NC(=O)[C@@H](CC(C(=O)O)C(=O)O)NC(=O)[C@H](CC(=O)O)NC(C)=O)C(=O)N[C@@H](CC1CCCCC1)C(=O)N[C@@H](CS)C(=O)O (Ac-D[dGla]LI[Cha]C-OH) |  | 8.05 | 
COc1ccc2c(O[C@@H]3C[C@H]4C(=O)N[C@]5(C(=O)O)C[C@H]5/C=C\CCCCC[C@H](NC(=O)OC5CCCC5)C(=O)N4C3)cc(-c3csc(NC(C)C)n3)nc2c1 [CILUPREVIR] | 7.70 |  | CC50 [4]: > 100 nM; pKi (NS3 [5]): 10.05
